Laboratory results taken from the NIST ThermoML archive (doi:10.1016/j.jct.2013.03.005).
Values joined by “and” are separate entries in the source; they are usually repeats but may differ in a detail not shown here. Equal entries are not always repeated. Numbers after ± are expanded uncertainties.

Experiments:
[1] = Molar enthalpy of transition or fusion; conditions: Crystal; DSC
[2] = for mass density: 298.15 K, 101.33 kPa, mass/volume ratio of a pellet; for Normal melting temperature: DTA
[3] = molar enthalpy of vaporization or sublimation; conditions: 298.15 K; Crystal; Static calorimetry

OCC1c2ccccc2-c2ccccc21 [9-fluorenemethanol]
Conditions	Molar enthalpy of transition or fusion [kJ/mol]
[1]	27.9 ± 0.62

[2], Crystal
Conditions	Normal melting temperature [°C]	mass density [kg/m3]
–	103.92 ± 0.41	1084 ± 110

[2]
Conditions	vapor or sublimation pressure
337.18 K, Crystal, Calculated from knudsen effusion weight loss	9.2e-05 ± 2e-05 kPa and 9e-05 ± 2e-05 kPa
339.17 K, Crystal, Calculated from knudsen effusion weight loss	0.000119 ± 2e-05 kPa and 0.000117 ± 2e-05 kPa and 0.000115 ± 2e-05 kPa
341.1 K, Crystal, Calculated from knudsen effusion weight loss	0.00015 ± 2.1e-05 kPa and 0.000147 ± 2.1e-05 kPa
343.17 K, Crystal, Calculated from knudsen effusion weight loss	0.00019 ± 2.1e-05 kPa and 0.000187 ± 2.1e-05 kPa and 0.000197 ± 2.1e-05 kPa
345.21 K, Crystal, Calculated from knudsen effusion weight loss	0.000247 ± 2.2e-05 kPa and 0.000239 ± 2.2e-05 kPa and 0.000243 ± 2.2e-05 kPa
347.13 K, Crystal, Calculated from knudsen effusion weight loss	0.000306 ± 2.3e-05 kPa and 0.000303 ± 2.3e-05 kPa and 0.000302 ± 2.3e-05 kPa
349.16 K, Crystal, Calculated from knudsen effusion weight loss	0.00038 ± 2.4e-05 kPa and 0.000381 ± 2.4e-05 kPa and 0.00039 ± 2.4e-05 kPa
351.22 K, Crystal, Calculated from knudsen effusion weight loss	0.000493 ± 2.7e-05 kPa and 0.000476 ± 2.6e-05 kPa and 0.000488 ± 2.6e-05 kPa
353.14 K, Crystal, Calculated from knudsen effusion weight loss	0.000611 ± 2.9e-05 kPa and 0.000602 ± 2.9e-05 kPa and 0.000607 ± 2.9e-05 kPa
355.17 K, Crystal, Calculated from knudsen effusion weight loss	0.000748 ± 3.3e-05 kPa and 0.000739 ± 3.3e-05 kPa and 0.000772 ± 3.4e-05 kPa
357.16 K, Crystal, Calculated from knudsen effusion weight loss	0.00095 ± 3.9e-05 kPa and 0.000955 ± 3.9e-05 kPa and 0.000923 ± 3.8e-05 kPa
359.1 K, Crystal, Calculated from knudsen effusion weight loss	0.00118 ± 9.5e-05 kPa and 0.001184 ± 9.5e-05 kPa and 0.001169 ± 9.4e-05 kPa
362.69 K, Liquid, Closed cell (Static) method	0.00242 ± 0.00016 kPa
364.67 K, Liquid, Closed cell (Static) method	0.00285 ± 0.00017 kPa
366.66 K, Liquid, Closed cell (Static) method	0.00333 ± 0.00018 kPa
368.63 K, Liquid, Closed cell (Static) method	0.00391 ± 0.0002 kPa
370.62 K, Liquid, Closed cell (Static) method	0.00456 ± 0.00022 kPa
372.6 K, Liquid, Closed cell (Static) method	0.00529 ± 0.00024 kPa
374.57 K, Liquid, Closed cell (Static) method	0.00615 ± 0.00027 kPa
376.56 K, Liquid, Closed cell (Static) method	0.00711 ± 0.00031 kPa
378.53 K, Liquid, Closed cell (Static) method	0.00817 ± 0.00034 kPa
380.52 K, Liquid, Closed cell (Static) method	0.00947 ± 0.00039 kPa
382.5 K, Liquid, Closed cell (Static) method	0.01089 ± 0.00044 kPa
384.49 K, Liquid, Closed cell (Static) method	0.01253 ± 0.00051 kPa
386.47 K, Liquid, Closed cell (Static) method	0.0143 ± 0.00054 kPa
388.43 K, Liquid, Closed cell (Static) method	0.01639 ± 0.00057 kPa
390.43 K, Liquid, Closed cell (Static) method	0.0188 ± 0.00061 kPa
392.39 K, Liquid, Closed cell (Static) method	0.02137 ± 0.00065 kPa
394.37 K, Liquid, Closed cell (Static) method	0.02432 ± 0.00069 kPa
396.35 K, Liquid, Closed cell (Static) method	0.02764 ± 0.00074 kPa
398.32 K, Liquid, Closed cell (Static) method	0.03131 ± 0.0008 kPa
400.3 K, Liquid, Closed cell (Static) method	0.03556 ± 0.00086 kPa

O=C(O)C1c2ccccc2-c2ccccc21 [9H-fluorene-9-carboxylic acid]
Conditions	Molar enthalpy of transition or fusion [kJ/mol]	molar enthalpy [kJ/mol]
[1]	30.2 ± 0.73	–
[3]	–	127 ± 2.1

[2], Crystal
Conditions	Normal melting temperature [°C]	mass density [kg/m3]
–	230.68 ± 0.56	1164 ± 120

[2], Crystal, Calculated from knudsen effusion weight loss
Conditions	vapor or sublimation pressure [kPa]
384.16 K	0.000139 ± 2.1e-05
386.13 K	0.000171 ± 2.1e-05
388.15 K	0.000211 ± 2.1e-05
392.14 K	0.000307 ± 2.3e-05
394.15 K	0.000378 ± 2.4e-05
396.15 K	0.000474 ± 2.6e-05
398.15 K	0.000558 ± 2.8e-05
400.13 K	0.000689 ± 3.2e-05
402.14 K	0.000811 ± 3.5e-05
404.15 K	0.000994 ± 4e-05
406.16 K	0.001182 ± 9.5e-05
